The values below come from patent US20250026747A1, “COLIBACTIN DERIVATIVES AND METHODS OF TREATING, AMELIORATING, AND/OR PREVENTING CANCER” (priority 2021, published 2025).

Type in all cases: cell-based, human
In one data set the test system is FANCD2. The data set can be described thus: Immunofluorescence assay of FANCD2 foci in HeLa cells. Particulars: 4 h treatment, 20 h further culture; for FANCD2 foci formation: 1-100 μM. The procedure: (§1) FIGS. 7A-7B evaluates the Colibactin 742 (4) and its linear precursor 9 recapitulate the clb phenotype. […] HeLa cells were treated with the linear precursor 9 (1-100 μM), colibactin 742 (4) (1-100 μM) or MMC (150 nM) for 4 h. The cells were then washed and incubated for 20 h before immunofluorescence imaging. Cells were considered positive when >5 FANCD2 or γH2AX foci formed. Means and standard deviations of results from at least three independent experiments are shown. FIG. 7B depicts the DNA content histograms upon treatment with colibactin 742 (4, 11 μM) or 9 (11 μM) quantification of the sub-population of the histograms.
(§2) The present study then probed the DNA damage response that was activated following exposure to colibactin 742 (4) or its linear precursor 9. In mammalian cells, DNA interstrand cross-links (ICLs) are repaired by the Fanconi anemia pathway, and activation of this pathway is observed when eukaryotic cells are infected with clb^+ bacteria. Upon detection of an ICL, the Fanconi anemia protein D2 (FANCD2) is activated by monoubiquitinylation and recruited to the ICL to coordinate repair. Following initiation of repair, a double-strand break (DSB) is generated, which in turns triggers the formation of phospho-SER139-H2AX (γH2AX) nuclear foci. […] Consequently, the instant study probed for activation of FANCD2 and γH2AX by immunofluorescence imaging in cells treated with 4 or 9. Using conditions that closely mimic the bacterial coinfection experiments, the instant study treated HeLa cells with colibactin 742 (4) (1-100 μM), the linear precursor 9 (1-100 μM), or MMC (150 nM, higher concentrations of MMC reduced cell viability) for 4 h. The cells were then washed and cultured for a further 20 h. […] Thus, the synthetic compounds 4 and 9 induce a similar activation of the eukaryotic DNA damage response as clb^+ E. coli.
(§3) Cells were seeded at a density of 3500 cells per well to achieve total well volumes of 20 μL in 384-well plates (black with an optically clear bottom, Greiner Bio One 781091) using a Thermo Combidrop liquid dispenser. Cells were grown for 24 h, followed by the addition of test compounds using an Echo acoustic liquid handler (Labcyte). For each tested drug concentration, a 20 nL aliquot of the 1000× stock was added to 20 μL of cells to provide a final DMSO concentration of 0.1%. The compounds were incubated for 4 h at concentrations ranging from 1.2 μM to 100 μM in growth medium, at 37° C., 5% CO2. Each plate contained negative vehicle control wells (0.1% DMSO) and positive control wells (0.15 μM Mitomycin C, MMC). After 4 h incubation, the cells were washed once with Dulbecco's Phosphate-buffered solution (DPBS, Life Technologies), then fresh growth medium was added. The cells were incubated for 20 h, fixed, and subjected to immunofluorescence imaging.
(§4) Cells were fixed with 4% paraformaldehyde (PFA) (Electron Microscopy Sciences) in the presence of 0.02% Triton X-100 at room temperature (RT) for 20 min and then incubated in permeabilization/blocking solution [10% FBS and 0.5% Triton X-100 in phosphate-buffered saline (PBS)] at RT for 1 h. Primary antibodies were diluted 1:500 in permeabilization/blocking solution and used to stain cells at 4° C. overnight. […] Cells were imaged using the InCell 2200 Imaging System (GE Corp.) and analyzed using InCell Analyzer software (GE Corp.) to quantify the number of γH2AX and FANCD2 foci. Cells were counted as positive for focus formation when 5 foci/nucleus were detected.

The subject of a further data set is γH2AX. The data set can be described thus: Immunofluorescence assay of γH2AX foci in HeLa cells. Particulars: 4 h treatment, 20 h further culture; for γH2AX foci formation: 1-100 μM; for number of positive cells for γH2AX foci: 11 μM, positive when >5 foci. The procedure: as §1, §2, §3, §4
In another data set the test system is HeLa cells. In words: Cell viability assay (CellTiter-GLO) in HeLa cells. The settings on record: 72 h, 24 nM to 100 μM. As to the method:
(§5) FIGS. 12A-12E show the results of the Cell viability assays. Specifically, HeLa cells were incubated with: (FIG. 12A) compound 9; (FIG. 12B) colibactin 742 (4); (FIG. 12C) compound 22; (FIG. 12D) compound 23; or (FIG. 12E) compound 24 at 24 nM-100 μM for 72 h, according some embodiments. The cells were then incubated with CTG reagent and the luminescence was measured. Results were normalized to DMSO control (0.1%, 0% effect) tamoxifen (60 μM, 100% effect). The points are the averages of twelve measurements (triplicates of four). The lines are four parameters logistic regression (4PL) fit. Error bars represent 95% confidence ranges.
(§6) Experiments to determine if the cyclized and linear forms (colibactin 742 (4) and 9, respectively) are cytotoxic were conducted. As discussed above, the timing of the cyclization events that form the colibactin warheads is not known. To probe this, the instant study measured the cytotoxicity of both the linear precursor 9 and colibactin 742 (4) toward human cervical cancer cells (HeLa). The compounds were incubated for 72 h at concentrations ranging from 24 nM to 100 μM. Cell viability was measured using CellTiter GLO assay and normalized to tamoxifen (60 μM, set at 100% effect) and methyl sulfoxide (DMSO, set at 0% effect). […] Additionally, this observation further supports the notion that while the C36-C37 1,2-diketone may dictate colibactin's half-life within the gut, it may not play a critical role in DNA damage.
(§7) Hela cells were grown in Dulbecco's Modified Eagle Medium (DMEM) supplemented with fetal bovine serum (FBS, 10%) and penicillin-streptomycin (0.1%) at 37° C. in a 95% humidity atmosphere under 5% CO2 environment. Cytotoxicity was determined using a CellTiter-GLO Assay. Cells were seeded at a density of 400 cells to achieve total well volumes of 20 μL in 384-well plates (black with an optically clear bottom, Greiner Bio One 781091) using a Thermo Combidrop liquid dispenser and grown for […] at 37° C., 5% CO2. Cells were grown for 24 h, followed by the addition of test compounds using an Echo acoustic liquid handler (Labcyte). For each tested drug concentration, a 20 nL aliquot of the 1000× stock was added to 20 μL of cells to provide a final DMSO concentration of 0.1%. The compounds were incubated for 72 h at concentrations ranging from 24 nM to 100 μM. Each plate contained negative vehicle control wells (0.1% DMSO) and positive control wells (60 μM tamoxifen). After 72 h, the cells were treated with 10 μL CTG reagent. […] The resulting luminescence was measured using a plate reader (Infinite M1000, TECAN Group AG). Biological triplicates, each measured four times (N=12), for each compound were recorded for each concentration and IC50 values were determined using Prism 9 (Graph Pad) fit with a four parameters nonlinear regression.

The nature of data set [1]: Cell viability assay (CellTiter-GLO) in HeLa cells. Particulars: human, 72 h, 24 nM to 100 μM, normalized to tamoxifen 60 μM and DMSO, read-out: half-maximal inhibitory potency (IC50), cytotoxicity. As to the method:
as §5, §6, §7

Molecules are shown by their SMILES.

For the compound `CCOC(=O)c1nc(C2(O)CNC(=O)C2C2=C(C3=N[C@@H](C)CC3)C(=O)NC23CC3)cs1` (some centres unmarked) [compound 24], in the data set with FANCD2, the FANCD2 foci formation entry is listed as “did not induce”. The γH2AX foci formation entry in the data set with γH2AX is “did not induce”. Besides, in the data set on HeLa cells, the cytotoxicity result was “showed no toxicity”.
For `C[C@H]1CCC(CC(=O)NC2(C(=O)CC(=O)NCC(=O)c3csc(CCc4csc(CNC(=O)CC(=O)C5(NC(=O)CC6=N[C@@H](C)CC6)CC5)n4)n3)CC2)=N1` [compound 9], the “number of positive cells for FANCD2 foci” value with FANCD2 (11 μM, positive when >5 foci) is given as “four-fold increase”. The “cell death and decrease in positive cells at higher concentrations” value with FANCD2 (higher concentrations (>33 μM)) is reported as “induced cell death”. Moreover, the “number of positive cells for γH2AX foci” value in the data set on γH2AX is “four-fold increase”. Also, the IC50 in data set [1] turned out to be 7.2 ± 1.7 µM.
As for `C[C@H]1CCC(C2=C(CC(=O)NCC(=O)c3csc(CCc4csc(CNC(=O)CC5=C(C6=N[C@@H](C)CC6)C(=O)NC5(C)C)n4)n3)C(C)(C)NC2=O)=N1` [compound 22], the FANCD2 foci formation result in the data set on FANCD2 was “did not induce”. Moreover, in the data set with γH2AX, the γH2AX foci formation result is reported as “did not induce”. The cytotoxicity result in the data set on HeLa cells is reported as “showed no toxicity”.
As to `CCOC(=O)c1csc(CNC(=O)CC2=C(C3=N[C@@H](C)CC3)C(=O)NC23CC3)n1` [compound 23, reference compound], the “number of positive cells for FANCD2 foci (with respect to DMSO)” value in the data set with FANCD2 (33 μM) was “three-fold increase”. Besides, in the data set with γH2AX, the “number of positive cells for γH2AX foci” value was “induced significant γH2AX foci formation”. Moreover, the “number of positive cells for γH2AX foci (with respect to DMSO)” value in the data set with γH2AX (33 μM) was “three-fold increase”. In addition, the IC50 in data set [1] came out at 8.4 ± 2.4 µM.
